{"source": "patent US5817840A", "about": "“Water soluble taxol derivatives” (The Scripps Research Institute, priority 1997, dated 1998)", "key": {"[1]": {"system": "BALB/c 3T3 (normal mouse embryo)", "assay": "Cytotoxicity (sulphorhodamine B), normal cell line, Table 1B", "assay_type": "cell-based", "settings": "BALB/c3T3, 72 h", "method": "(§2) The cytotoxicities were determined using the sulphorhodamine B assay method (Skehan, P. et al. J. Nat. Canc. Inst. 82, 1107 (1990))."}, "[2]": {"system": "CHO (Chinese hamster ovary)", "assay": "Cytotoxicity, Example 8", "assay_type": "cell-based", "settings": "Cricetulus griseus, 72 h", "procedure,_shortened": "(§1)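 Cells were exposed to compound for 72 h at 37 °C, 5% CO2 in RPMI with 10% FBS. Biomass was stained with sulforhodamine B in 1% acetic acid, dye solubilized in […] unbuffered TRIS base (pH 10.5) and read at 540 nm; IC50 is the concentration reducing absorbance to 50% of control.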"}, "H322 (lung carcinoma)": {"system": "H322 (lung carcinoma)", "assay": "Cytotoxicity, Example 8", "assay_type": "cell-based", "settings": "NCI-H322, 72 h", "procedure,_shortened": "as §1"}, "[3]": {"system": "786-0 (human perirenal cell adenocarci)", "assay": "Cytotoxicity, Example 8", "assay_type": "cell-based", "settings": "786-0, 72 h", "procedure,_shortened": "as §1"}, "MCF-7 (breast carcinoma)": {"system": "MCF-7 (breast carcinoma)", "assay": "Cytotoxicity, Example 8", "assay_type": "cell-based", "settings": "Homo sapiens, MCF7, 72 h", "procedure,_shortened": "as §1"}, "[4]": {"system": "CAPAN-1 (pancreatic carcinoma)", "assay": "Cytotoxicity, Example 8", "assay_type": "cell-based", "settings": "Homo sapiens, CAPAN-1, 72 h", "procedure,_shortened": "as §1"}, "[5]": {"system": "OVCAR-3 (human ovarian carcinoma)", "assay": "Cytotoxicity, Example 8", "assay_type": "cell-based", "settings": "OVCAR-3, 72 h", "procedure,_shortened": "as §1"}, "SK-MEL-28 (melanoma)": {"system": "SK-MEL-28 (melanoma)", "assay": "Cytotoxicity, Example 8", "assay_type": "cell-based", "settings": "Homo sapiens, SK-MEL-28, 72 h", "procedure,_shortened": "as §1"}, "[6]": {"system": "S1HA (human squamous carcinoma crvx)", "assay": "Cytotoxicity, Example 8", "assay_type": "cell-based", "settings": "72 h", "procedure,_shortened": "as §1"}, "[7]": {"system": "W1-38 (normal human diploid lung)", "assay": "Cytotoxicity, Example 8", "assay_type": "cell-based", "settings": "W138, 72 h", "procedure,_shortened": "as §1"}, "[8]": {"system": "HLF-1 (normal human diploid lung)", "assay": "Cytotoxicity, Example 8", "assay_type": "cell-based", "settings": "HLF1, 72 h", "procedure,_shortened": "as §1"}, "Capan-1 (pancreatic)": {"system": "Capan-1 (pancreatic)", "assay": "Cytotoxicity (sulphorhodamine B), cancer cell line, Table 1B", "assay_type": "cell-based", "settings": "Homo sapiens, CAPAN-1, 72 h", "method": "as §2"}, "SK (melanoma)": {"system": "SK (melanoma)", "assay": "Cytotoxicity (sulphorhodamine B), cancer cell line, Table 1B", "assay_type": "cell-based", "settings": "72 h", "method": "as §2"}, "[9]": {"system": "PC-3 (prostate carcinoma)", "assay": "Cytotoxicity (sulphorhodamine B), cancer cell line, Table 1B", "assay_type": "cell-based", "settings": "Homo sapiens, 72 h", "method": "as §2"}, "[10]": {"assay": "Taxol release from protaxols in aqueous buffer", "assay_type": "physicochemical", "settings": "pH 7.0-9.0, 20 and 37° C., FIG. 2A", "procedure": "The derivatives in which the C-7 hydroxyl group was acetylated were extremely unstable in aqueous media losing the C-7 substituent very rapidly. The stability of the synthesized compounds was examined at various pH's and temperatures. […] Table 1A includes the half-lives of six of these compounds at pH 7.5 and 9. […] This illustrates the ability to fine-tune the rate of release of taxol to a desired set of conditions using simple chemical principles.\nProtaxol 5 was dissolved in dimethylsulphoxide (DMSO) at 25° C. and immediately added to the appropriate phosphate buffer solution at the specified temperature. Aliquots were analysed using a Waters Maxima system HPLC instrument equipped with auto-injector (3.9×300 mm C18 column equipped with a precolumn; flow rate, 1.5 ml min^-1; eluant, gradient A-B, where A is 80% 100 mM ammonium acetate, buffer pH 6.0, and B is 100% methanol; ultraviolet detector). The per cent taxol released was determined from the relative areas of the peaks corresponding to protaxol 5 and taxol (the conversion was clean, and it was assumed that the two compounds have equal molar extinction coefficients)."}, "[11]": {"system": "CHO (normal human mammary)", "assay": "Cytotoxicity (sulphorhodamine B), normal cell line, Table 1B", "assay_type": "cell-based", "settings": "Homo sapiens, 72 h"}}}
{"compound": "CC(=O)O[C@H]1C(=O)[C@@]2(C)[C@H]([C@H](OC(=O)c3ccccc3)[C@]3(O)C[C@H](OC(=O)[C@H](OC(=O)CS(=O)(=O)CC(=O)O)[C@@H](NC(=O)c4ccccc4)c4ccccc4)C(C)=C1C3(C)C)[C@]1(OC(C)=O)CO[C@@H]1C[C@@H]2O", "note": "[Compound 5]", "values": [{"measurement": "IC50", "setting": "[1]", "result": 10, "unit": "µM"}, {"measurement": "IC50", "setting": "[2]", "result": 100, "unit": "µM"}, {"measurement": "IC50", "setting": "H322 (lung carcinoma)", "result": 5, "unit": "µM"}, {"measurement": "IC50", "setting": "[3]", "result": 0.13, "unit": "µM"}, {"measurement": "IC50", "setting": "MCF-7 (breast carcinoma)", "result": 61, "unit": "µM"}, {"measurement": "IC50", "setting": "[4]", "result": 0.19, "unit": "µM"}, {"measurement": "IC50", "setting": "[5]", "result": 0.098, "unit": "µM"}, {"measurement": "IC50", "setting": "SK-MEL-28 (melanoma)", "result": 100, "unit": "µM"}, {"measurement": "IC50", "setting": "[6]", "result": 50, "unit": "µM"}, {"measurement": "IC50", "setting": "[7]", "result": 13, "unit": "µM"}, {"measurement": "IC50", "setting": "[8]", "result": 13, "unit": "µM"}, {"measurement": "IC50", "setting": "Capan-1 (pancreatic)", "result": "< 0.001", "unit": "µM"}, {"measurement": "IC50", "setting": "SK (melanoma)", "result": 10, "unit": "µM"}, {"measurement": "IC50", "setting": "[9]", "result": 1, "unit": "µM"}, {"measurement": "effect of temperature and pH on taxol release", "setting": "[10]", "result": "accelerating effect of higher temperatures and pH on taxol release"}, {"measurement": "IC50", "setting": "[11]", "result": 100, "unit": "µM"}]}
